Reference: ChEMBL document CHEMBL1201862, “PubChem BioAssay data set” (2004)
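All cell lines were grown in 96-well plates and treated with compound for 48 hours. At the GI50, growth is halved.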 Calls of active or inactive are those of the source. Cut-off read from the data, not from the text of the source: active = GI50 up to about 1.1 µM and inactive = higher.

Assays:
Experiment in all cases: NCI tumour cell line growth inhibition, 48 h
NCI-H460 = tested on: NCI-H460
LOX IMVI = tested on: LOX IMVI
HCT-116 = tested on: HCT-116
UO-31 = tested on: UO-31
SK-MEL-5 = tested on: SK-MEL-5
M14 = tested on: M14
RPMI-8226 = tested on: RPMI-8226
A498 = tested on: A498
OVCAR-8 = tested on: OVCAR-8
UACC-257 = tested on: UACC-257
Malme-3M = tested on: Malme-3M
786-0 = tested on: 786-0
MOLT-4 = tested on: MOLT-4
ACHN = tested on: ACHN
COLO 205 = tested on: COLO 205
SF-268 = tested on: SF-268
SNB-75 = tested on: SNB-75
U-251 = tested on: U-251
HL-60 = tested on: HL-60
CCRF-CEM = tested on: CCRF-CEM

SMILES | GI50 (NCI-H460) | GI50 (LOX IMVI) | GI50 (HCT-116) | GI50 (UO-31) | GI50 (SK-MEL-5) | GI50 (M14) | GI50 (RPMI-8226) | GI50 (A498) | GI50 (OVCAR-8) | GI50 (UACC-257) | GI50 (Malme-3M) | GI50 (786-0) | GI50 (MOLT-4) | GI50 (ACHN) | GI50 (COLO 205) | GI50 (SF-268) | GI50 (SNB-75) | GI50 (U-251) | GI50 (HL-60) | GI50 (CCRF-CEM)
Nc1ccc(S(=O)(=O)c2ccc(NC(=O)c3cccnc3)cc2)cc1 | > 100 µM (inactive) | > 100 µM (inactive) | > 100 µM (inactive) | > 100 µM (inactive) | 42.4 µM (inactive) | > 100 µM (inactive) | 36.6 µM (inactive) | > 100 µM (inactive) | > 100 µM (inactive) | 53 µM (inactive) | > 100 µM (inactive) | > 100 µM (inactive) | 57.5 µM (inactive) | > 100 µM (inactive) | > 100 µM (inactive) | > 100 µM (inactive) | 30.8 µM (inactive) | > 100 µM (inactive) | 45.1 µM (inactive) | 
C=C1C(=O)O[C@H]2C1[C@H](OC(=O)/C(C)=C\COC(C)=O)C[C@]1(CO1)[C@@H]1[C@H](O)[C@H]3O[C@@]3(C)[C@@H]12 (stereo partly drawn) | 33.4 µM (inactive) | 16.7 µM (inactive) | 13.1 µM (inactive) | > 88.7 µM (inactive) | 18.6 µM (inactive) |  | 13.3 µM (inactive) | 61.5 µM (inactive) | 24.8 µM (inactive) | 16.8 µM (inactive) | 20.7 µM (inactive) |  | 19.5 µM (inactive) |  | 8.73 µM (inactive) | 21.1 µM (inactive) | 37 µM (inactive) | 21.7 µM (inactive) | 13.9 µM (inactive) | 10.5 µM (inactive)
O=C(Nc1ccc(C(F)(F)F)cc1[N+](=O)[O-])C(=O)Nn1c(S)nc2ccccc2c1=O | > 100 µM (inactive) | > 100 µM (inactive) | > 100 µM (inactive) | > 100 µM (inactive) | > 100 µM (inactive) |  | > 100 µM (inactive) | > 100 µM (inactive) | > 100 µM (inactive) | > 100 µM (inactive) | > 100 µM (inactive) |  | > 100 µM (inactive) | > 100 µM (inactive) | > 100 µM (inactive) | > 100 µM (inactive) | > 100 µM (inactive) | > 100 µM (inactive) | > 100 µM (inactive) | > 100 µM (inactive)
C=C1C(=O)OC2/C=C(\C)CC(O)/C=C(/CO)CC(OC(=O)/C(C)=C/C)C12 (stereo not drawn) | 36 µM (inactive) | 12.3 µM (inactive) | 29.6 µM (inactive) | 173 µM (inactive) | 14.8 µM (inactive) |  | 7.1 µM (inactive) | 26.8 µM (inactive) | 24 µM (inactive) | 45.6 µM (inactive) | 18.9 µM (inactive) |  | 18.2 µM (inactive) |  | 19.3 µM (inactive) | 46.8 µM (inactive) | 133 µM (inactive) | 86.1 µM (inactive) | 13.3 µM (inactive) | 13.9 µM (inactive)
CSC(=S)N/N=C(\C)c1cccc(C)n1 | 0.456 µM (active) | 1.13 µM (inactive) | 0.183 µM (active) | 1.21 µM (inactive) | 0.558 µM (active) | 0.312 µM (active) |  | 2.21 µM (inactive) | 0.769 µM (active) | 0.92 µM (active) | 0.809 µM (active) | 0.361 µM (active) | 0.123 µM (active) | 0.265 µM (active) | 0.0513 µM (active) | 0.708 µM (active) | 1.86 µM (inactive) | 0.776 µM (active) | 0.0764 µM (active) | 0.0124 µM (active)
COc1ccc(CCCNC(=O)Cc2ccccc2CO)cc1OC | > 100 µM (inactive) | > 100 µM (inactive) | > 100 µM (inactive) | > 100 µM (inactive) | > 100 µM (inactive) | > 100 µM (inactive) |  | > 100 µM (inactive) | > 100 µM (inactive) | > 100 µM (inactive) | > 100 µM (inactive) | > 100 µM (inactive) | > 100 µM (inactive) | > 100 µM (inactive) | > 100 µM (inactive) |  | > 100 µM (inactive) | > 100 µM (inactive) | > 100 µM (inactive) | > 100 µM (inactive)
Nc1nc(SCCC/C=C/B(O)O)nc2c1ncn2C1OC(CO)C(O)C1O (stereo not drawn) | > 243 µM (inactive) | > 243 µM (inactive) | > 243 µM (inactive) |  | > 243 µM (inactive) | > 243 µM (inactive) |  | > 243 µM (inactive) | > 243 µM (inactive) | > 243 µM (inactive) | > 243 µM (inactive) |  | > 243 µM (inactive) | > 243 µM (inactive) | > 243 µM (inactive) | > 243 µM (inactive) | > 243 µM (inactive) | > 243 µM (inactive) | > 243 µM (inactive) | > 243 µM (inactive)
O=C(N/N=C(\c1nc2ccc(Cl)cc2nc1O)C(O)c1ccccc1Cl)c1ccncc1 (stereo not drawn) | > 100 µM (inactive) | > 100 µM (inactive) | > 100 µM (inactive) | > 100 µM (inactive) | > 100 µM (inactive) | > 100 µM (inactive) |  | > 100 µM (inactive) |  | > 100 µM (inactive) | > 100 µM (inactive) | > 100 µM (inactive) | > 100 µM (inactive) | > 100 µM (inactive) | > 100 µM (inactive) | > 100 µM (inactive) | > 100 µM (inactive) |  | > 100 µM (inactive) | > 100 µM (inactive)
Cc1noc(/N=C2\C=C(O)C(=O)c3ccccc32)c1C | 2.36 µM (inactive) | 2.14 µM (inactive) | 1.69 µM (inactive) | 3.18 µM (inactive) | 0.676 µM (active) | 0.656 µM (active) | 9.64 µM (inactive) | 29.2 µM (inactive) | 7.38 µM (inactive) | 4.19 µM (inactive) | 2.55 µM (inactive) | 21.2 µM (inactive) | 18.7 µM (inactive) | 13 µM (inactive) | 31.5 µM (inactive) | 16.9 µM (inactive) | 3.5 µM (inactive) | 1.03 µM (active) | 0.516 µM (active) | 
COc1cc2nc(-c3cccs3)[nH]c(=O)c2cc1OC | > 100 µM (inactive) | > 100 µM (inactive) | 70.6 µM (inactive) | > 100 µM (inactive) | > 100 µM (inactive) | > 100 µM (inactive) | 65.5 µM (inactive) | > 100 µM (inactive) | > 100 µM (inactive) | > 100 µM (inactive) | > 100 µM (inactive) | > 100 µM (inactive) |  | > 100 µM (inactive) | > 100 µM (inactive) | > 100 µM (inactive) | > 100 µM (inactive) | 61.7 µM (inactive) | 35.4 µM (inactive) | 36.6 µM (inactive)
CC1(C)N=c2c(ncn2Cc2ccccc2)=C(C(N)=O)N1 | > 100 µM (inactive) | > 100 µM (inactive) | > 100 µM (inactive) |  | > 100 µM (inactive) | > 100 µM (inactive) | > 100 µM (inactive) | > 100 µM (inactive) | > 100 µM (inactive) | > 100 µM (inactive) | > 100 µM (inactive) | > 100 µM (inactive) |  | 94.4 µM (inactive) | > 100 µM (inactive) | > 100 µM (inactive) | > 100 µM (inactive) | > 100 µM (inactive) | > 100 µM (inactive) | > 100 µM (inactive)
